Reference: patent US3974268A, “Bone-seeking technetium-99m imidodiphosphonate complex” (priority 1975, dated 1976)

Assays:
[1] = in words, stated as known; cited from earlier work
[2] = Organ distribution of 99mTc-IDP in rabbits with 85Sr administered simultaneously (Table 1); format: in vivo, New Zealand adult albino rabbits; conditions: for % Dose/1% Body Weight, AVG BONE: mean of femur, tibia, spine, pelvis
Method: The organ distribution of the ^99m Tc imidodiphosphonate (IDP) was studied after I.V. injection of 50-200 μCi containing 0.1-0.2 mg of IDP per animal in New Zealand adult albino rabbits weighing 3.5-5 kg and compared with 10-20 μCi of ^85 Sr administered simultaneously as a biological standard. The methods of tissue assay used were those described in the Subramanian et al. references, supra. These animals were sacrificed at various time intervals from 15 min. to 24 hrs. after injection. […] A whole body image of the dog was obtained in the right lateral projection 4 hours after intravenous injection of 5 mCi of ^99m Tc-IDP using the Ohio Nuclear Model 100 area scan camera fitted with a 140 kev high sensitivity parallel hole collimator, with the data density setting of 200.
Table 1 contains biological distribution data of ^99m Tc-IDP in rabbits with ^85 Sr used simultaneously. The numbers shown in parenthesis after the time of study is the number of animals used per time interval. The values for each organ shown are the averages for each group of animals. The bone concentration shown as % dose / 1% body weight is the mean value of individual average of concentrations in four types of bone; the femur, tibia, spine and pelvis. An overall mean concentration of the four types of bone was calculated for each animal and then the average of these mean values were determined. Similarly the mean values for bone/organ ratios were calculated for each group.
In order to compensate for biologic variation, bone agents are best studied by comparing the quantitative uptake of the new compound with simultaneously administered ^85 Sr as a means of normalization. In comparing several ^99m Tc labeled agents between each other one should not only compare the whole organ uptake of individual compounds but also the ratios of their concentrations with ^85 Sr, especially so in comparing bone uptakes. Due to regional variation in bone uptake with the skeleton it is difficult to correctly estimate whole body bone uptake quantitatively. Nevertheless, the data for single whole bones (femur and tibia) is useful. […] This concentration change over serial time intervals may be due to the metabolic breakdown of the compound at the bone mineral surface with the ^99m Tc complex being more labile, while we known the biological half life of ^85 Sr is prolonged. Even at the later time intervals than 2 hours, ^99m Tc-IDP concentration in bone is at least 20-25% higher than the other Tc complexes (Table 2). The soft tissue concentrations of all these complexes are lower, especially that of the muscle, than ^85 Sr. The liver concentration is somewhat higher than ^85 Sr for some ^99m Tc complexes. This should not be a problem because the total liver concentration is relatively low.

[3] = 15 min after I.V. injection, mean of 6 rabbits
[4] = 1 hour after I.V. injection, mean of 6 rabbits
[5] = 2 hours after I.V. injection, mean of 9 rabbits
[6] = 4 hours after I.V. injection, mean of 9 rabbits
[7] = 24 hours after I.V. injection, mean of 7 rabbits

[85Sr] [85Sr]
biological half life [1]: prolonged
% Dose in Whole Organ, BLOOD [2, 3]: 16.1 % Dose
% Dose in Whole Organ, KIDNEY [2, 3]: 1.27 % Dose
% Dose in Whole Organ, LIVER [2, 3]: 2.13 % Dose
% Dose in Whole Organ, MARROW [2, 3]: 0.903 % Dose
% Dose in Whole Organ, MUSCLE [2, 3]: 15.6 % Dose
% Dose in Whole Organ, URINE [2, 3]: 4.94 % Dose
% Dose in Whole Organ, WHOLE FEMUR [2, 3]: 0.741 % Dose
% Dose in Whole Organ, WHOLE TIBIA [2, 3]: 0.540 % Dose
% Dose/1% Body Weight, BLOOD [2, 3]: 2.29 % Dose/1% Body Weight
% Dose/1% Body Weight, FEMUR [2, 3]: 3.41 % Dose/1% Body Weight
% Dose/1% Body Weight, KIDNEY [2, 3]: 2.68 % Dose/1% Body Weight
% Dose/1% Body Weight, LG INT [2, 3]: 1.79 % Dose/1% Body Weight
% Dose/1% Body Weight, LIVER [2, 3]: 0.692 % Dose/1% Body Weight
% Dose/1% Body Weight, MARROW [2, 3]: 0.410 % Dose/1% Body Weight
% Dose/1% Body Weight, MUSCLE [2, 3]: 0.363 % Dose/1% Body Weight
% Dose/1% Body Weight, PELVIS [2, 3]: 5.06 % Dose/1% Body Weight
% Dose/1% Body Weight, SM INT [2, 3]: 1.23 % Dose/1% Body Weight
% Dose/1% Body Weight, SPINE [2, 3]: 3.76 % Dose/1% Body Weight
% Dose/1% Body Weight, TIBIA [2, 3]: 3.02 % Dose/1% Body Weight
RATIOS BONE/BLOOD [2, 3]: 1.71
RATIOS BONE/MARROW [2, 3]: 9.84
RATIOS BONE/MUSCLE [2, 3]: 10.6
% Dose/1% Body Weight, AVG BONE ([2]; 15 min after I.V. injection, 6 rabbits): 3.82 % Dose/1% Body Weight
% Dose in Whole Organ, BLOOD [2, 4]: 8.17 % Dose
% Dose in Whole Organ, KIDNEY [2, 4]: 0.938 % Dose
% Dose in Whole Organ, LIVER [2, 4]: 1.58 % Dose
% Dose in Whole Organ, MARROW [2, 4]: 0.817 % Dose
% Dose in Whole Organ, MUSCLE [2, 4]: 9.55 % Dose
% Dose in Whole Organ, URINE [2, 4]: 8.96 % Dose
% Dose in Whole Organ, WHOLE FEMUR [2, 4]: 1.27 % Dose
% Dose in Whole Organ, WHOLE TIBIA [2, 4]: 1.03 % Dose
% Dose/1% Body Weight, BLOOD [2, 4]: 1.17 % Dose/1% Body Weight
% Dose/1% Body Weight, FEMUR [2, 4]: 5.23 % Dose/1% Body Weight
% Dose/1% Body Weight, KIDNEY [2, 4]: 1.54 % Dose/1% Body Weight
% Dose/1% Body Weight, LG INT [2, 4]: 0.961 % Dose/1% Body Weight
% Dose/1% Body Weight, LIVER [2, 4]: 0.489 % Dose/1% Body Weight
% Dose/1% Body Weight, MARROW [2, 4]: 0.382 % Dose/1% Body Weight
% Dose/1% Body Weight, MUSCLE [2, 4]: 0.222 % Dose/1% Body Weight
% Dose/1% Body Weight, PELVIS [2, 4]: 5.47 % Dose/1% Body Weight
% Dose/1% Body Weight, SM INT [2, 4]: 0.654 % Dose/1% Body Weight
% Dose/1% Body Weight, SPINE [2, 4]: 5.82 % Dose/1% Body Weight
% Dose/1% Body Weight, TIBIA [2, 4]: 4.67 % Dose/1% Body Weight
RATIOS BONE/BLOOD [2, 4]: 4.53
RATIOS BONE/MARROW [2, 4]: 13.9
RATIOS BONE/MUSCLE [2, 4]: 23.9
% Dose/1% Body Weight, AVG BONE ([2]; 1 hour after I.V. injection, 6 rabbits): 5.30 % Dose/1% Body Weight
% Dose in Whole Organ, BLOOD [2, 5]: 5.19 % Dose
% Dose in Whole Organ, KIDNEY [2, 5]: 0.638 % Dose
% Dose in Whole Organ, LIVER [2, 5]: 0.947 % Dose
% Dose in Whole Organ, MARROW [2, 5]: 0.499 % Dose
% Dose in Whole Organ, MUSCLE [2, 5]: 7.96 % Dose
% Dose in Whole Organ, URINE [2, 5]: 16.6 % Dose
% Dose in Whole Organ, WHOLE FEMUR [2, 5]: 1.67 % Dose
% Dose in Whole Organ, WHOLE TIBIA [2, 5]: 1.34 % Dose
% Dose/1% Body Weight, BLOOD [2, 5]: 0.742 % Dose/1% Body Weight
% Dose/1% Body Weight, FEMUR [2, 5]: 6.84 % Dose/1% Body Weight
% Dose/1% Body Weight, KIDNEY [2, 5]: 1.14 % Dose/1% Body Weight
% Dose/1% Body Weight, LG INT [2, 5]: 0.762 % Dose/1% Body Weight
% Dose/1% Body Weight, LIVER [2, 5]: 0.357 % Dose/1% Body Weight
% Dose/1% Body Weight, MARROW [2, 5]: 0.227 % Dose/1% Body Weight
% Dose/1% Body Weight, MUSCLE [2, 5]: 0.186 % Dose/1% Body Weight
% Dose/1% Body Weight, PELVIS [2, 5]: 7.35 % Dose/1% Body Weight
% Dose/1% Body Weight, SM INT [2, 5]: 0.669 % Dose/1% Body Weight
% Dose/1% Body Weight, SPINE [2, 5]: 8.05 % Dose/1% Body Weight
% Dose/1% Body Weight, TIBIA [2, 5]: 6.60 % Dose/1% Body Weight
RATIOS BONE/BLOOD [2, 5]: 10.5
RATIOS BONE/MARROW [2, 5]: 36
RATIOS BONE/MUSCLE [2, 5]: 44
% Dose/1% Body Weight, AVG BONE ([2]; 2 hours after I.V. injection, 9 rabbits): 7.21 % Dose/1% Body Weight
% Dose in Whole Organ, BLOOD [2, 6]: 2.72 % Dose
% Dose in Whole Organ, KIDNEY [2, 6]: 0.267 % Dose
% Dose in Whole Organ, LIVER [2, 6]: 0.576 % Dose
% Dose in Whole Organ, MARROW [2, 6]: 0.300 % Dose
% Dose in Whole Organ, MUSCLE [2, 6]: 4.80 % Dose
% Dose in Whole Organ, URINE [2, 6]: 26.2 % Dose
% Dose in Whole Organ, WHOLE FEMUR [2, 6]: 1.84 % Dose
% Dose in Whole Organ, WHOLE TIBIA [2, 6]: 1.57 % Dose
% Dose/1% Body Weight, BLOOD [2, 6]: 0.388 % Dose/1% Body Weight
% Dose/1% Body Weight, FEMUR [2, 6]: 7.87 % Dose/1% Body Weight
% Dose/1% Body Weight, KIDNEY [2, 6]: 0.488 % Dose/1% Body Weight
% Dose/1% Body Weight, LG INT [2, 6]: 0.421 % Dose/1% Body Weight
% Dose/1% Body Weight, LIVER [2, 6]: 0.168 % Dose/1% Body Weight
% Dose/1% Body Weight, MARROW [2, 6]: 0.137 % Dose/1% Body Weight
% Dose/1% Body Weight, MUSCLE [2, 6]: 0.125 % Dose/1% Body Weight
% Dose/1% Body Weight, PELVIS [2, 6]: 9.83 % Dose/1% Body Weight
% Dose/1% Body Weight, SM INT [2, 6]: 0.300 % Dose/1% Body Weight
% Dose/1% Body Weight, SPINE [2, 6]: 9.57 % Dose/1% Body Weight
% Dose/1% Body Weight, TIBIA [2, 6]: 7.64 % Dose/1% Body Weight
RATIOS BONE/BLOOD [2, 6]: 23.6
RATIOS BONE/MARROW [2, 6]: 66.9
RATIOS BONE/MUSCLE [2, 6]: 73.3
% Dose/1% Body Weight, AVG BONE ([2]; 4 hours after I.V. injection, 9 rabbits): 9.16 % Dose/1% Body Weight
% Dose in Whole Organ, BLOOD [2, 7]: 0.250 % Dose
% Dose in Whole Organ, KIDNEY [2, 7]: 0.022 % Dose
% Dose in Whole Organ, LIVER [2, 7]: 0.004 % Dose
% Dose in Whole Organ, MARROW [2, 7]: 0.070 % Dose
% Dose in Whole Organ, MUSCLE [2, 7]: 0.628 % Dose
% Dose in Whole Organ, WHOLE FEMUR [2, 7]: 1.55 % Dose
% Dose in Whole Organ, WHOLE TIBIA [2, 7]: 1.38 % Dose
% Dose/1% Body Weight, BLOOD [2, 7]: 0.331 % Dose/1% Body Weight
% Dose/1% Body Weight, FEMUR [2, 7]: 6.39 % Dose/1% Body Weight
% Dose/1% Body Weight, KIDNEY [2, 7]: 0.067 % Dose/1% Body Weight
% Dose/1% Body Weight, LG INT [2, 7]: 0.088 % Dose/1% Body Weight
% Dose/1% Body Weight, LIVER [2, 7]: 0.016 % Dose/1% Body Weight
% Dose/1% Body Weight, MARROW [2, 7]: 0.032 % Dose/1% Body Weight
% Dose/1% Body Weight, MUSCLE [2, 7]: 0.015 % Dose/1% Body Weight
% Dose/1% Body Weight, PELVIS [2, 7]: 8.13 % Dose/1% Body Weight
% Dose/1% Body Weight, SM INT [2, 7]: 0.042 % Dose/1% Body Weight
% Dose/1% Body Weight, SPINE [2, 7]: 6.96 % Dose/1% Body Weight
% Dose/1% Body Weight, TIBIA [2, 7]: 6.58 % Dose/1% Body Weight
RATIOS BONE/BLOOD [2, 7]: 20.9
RATIOS BONE/MARROW [2, 7]: 217
RATIOS BONE/MUSCLE [2, 7]: 462
% Dose/1% Body Weight, AVG BONE ([2]; 24 hours after I.V. injection, 7 rabbits): 6.93 % Dose/1% Body Weight
